≈ marks a conversion by molar mass, not a printed value.
What was measured:
Assay in all cases: in vitro antibacterial evaluation, MIC by broth dilution
Assay type in all cases: cell-based
[1] = system: Enterococcus sp.; settings: broth dilution, 18 hours at 35° C.
Protocol: (§1) Methods for in vitro Antibacterial Evaluation (Table 1)
(§2) The minimum inhibitory concentration (MIC), the lowest concentration of the antibiotic which inhibits growth of the test organism, is determined by the broth dilution method using Muller-Hinton II […] (Baltimore Biological Laboratories) following the recommendations of the National Committee for Clinical Laboratory Standards [Methods for dilution antimicrobial susceptibility tests for bacteria that grow aerobically, approved standard M7-A2, National Committee for Clinical Laboratory Standards, Villanova, Pa.].
(§3) An inoculum level of 5×10^5 CFU/mL, and a range of antibiotic concentrations (64-0.06 μg/mL) is used. […] The test organisms include a spectrum of Gram-positive bacteria comprised of Staphylococcus sp., Streptococcus sp. and Enterococcus sp. These organisms include recent clinical isolates that are resistant to methicillin, penicillin and/or vancomycin.

[2] = system: Staphylococcus sp.; settings: broth dilution, 18 hours at 35° C.; for MIC Staphylococcus aureus (GC 1131): strain GC 1131
Protocol: as §1, §2, §3

[3] = system: Streptococcus sp.; settings: broth dilution, 18 hours at 35° C.
Protocol: as §1, §2, §3

[4] = system: Escherichia coli; settings: 18 hours at 35° C.

For `CC(c1ccccc1)C1NC(=O)CNC(=O)C(CO)NC(=O)C(C(O)C2CNC(=N)N2C2OC(CO)C(O)C(O)C2O)NC(=O)C(C(O)C2CNC(=N)N2)NC(=O)C(Cc2ccc(OC3OC(CO)C(OC4OC5COC6(CCCCC6C)OC5C(O)C4O)C(O)C3O)cc2)NC1=O` (stereo not shown) [Example 204], the “MIC Enterococcus avium (GC 4558)” value [1] was 16 µg/mL (≈ 11.5 µM), the “MIC Enterococcus faecalis (ATCC 29212)” value [1] was 16 µg/mL (≈ 11.5 µM) and the “MIC Enterococcus faecalis (GC 2242)” value [1] was 16 µg/mL (≈ 11.5 µM). For the same molecule, the “MIC Enterococcus faecalis (GC 2691)” value [1] was 16 µg/mL (≈ 11.5 µM), the “MIC Enterococcus faecalis (GC 3059)” value [1] was 16 µg/mL (≈ 11.5 µM) and the “MIC Enterococcus faecalis (GC 4552)” value [1] was 16 µg/mL (≈ 11.5 µM). The “MIC Enterococcus faecalis (GC 4553)” value [1] was 16 µg/mL (≈ 11.5 µM), the “MIC Enterococcus faecalis (GC 4554)” value [1] was 16 µg/mL (≈ 11.5 µM) and the “MIC Enterococcus faecalis (GC 6189)” value [1] was 16 µg/mL (≈ 11.5 µM). For the same molecule, the “MIC Enterococcus faecium (GC 2243)” value [1] was 16 µg/mL (≈ 11.5 µM), the “MIC Enterococcus faecium (GC 4556)” value [1] was 16 µg/mL (≈ 11.5 µM) and the “MIC Enterococcus faecium (GC 4557)” value [1] was 8 µg/mL (≈ 5.76 µM). For the same molecule, the “MIC Enterococcus faecalis (ATCC 29212)” value ([1]; inoculum 5×10^5 CFU/mL, strain ATCC 29212) was 16 µg/mL (≈ 11.5 µM), the “MIC Enterococcus faecalis (GC 2242)” value ([1]; inoculum 5×10^5 CFU/mL, strain GC 2242) was 16 µg/mL (≈ 11.5 µM) and the “MIC Enterococcus faecium (GC 2243)” value ([1]; inoculum 5×10^5 CFU/mL, strain GC 2243) was 16 µg/mL (≈ 11.5 µM). For the same molecule, the “MIC Enterococcus faecalis (GC 2691)” value ([1]; inoculum 5×10^5 CFU/mL, strain GC 2691) was 16 µg/mL (≈ 11.5 µM), the “MIC Enterococcus faecalis (GC 3059)” value ([1]; inoculum 5×10^5 CFU/mL, strain GC 3059) was 16 µg/mL (≈ 11.5 µM) and the “MIC Enterococcus faecalis (GC 4552)” value ([1]; inoculum 5×10^5 CFU/mL, strain GC 4552) was 16 µg/mL (≈ 11.5 µM). The “MIC Enterococcus faecalis (GC 4553)” value ([1]; inoculum 5×10^5 CFU/mL, strain GC 4553) was 16 µg/mL (≈ 11.5 µM), the “MIC Enterococcus faecalis (GC 4554)” value ([1]; inoculum 5×10^5 CFU/mL, strain GC 4554) was 16 µg/mL (≈ 11.5 µM) and the “MIC Enterococcus faecium (GC 4556)” value ([1]; inoculum 5×10^5 CFU/mL, strain GC 4556) was 16 µg/mL (≈ 11.5 µM). The “MIC Enterococcus faecium (GC 4557)” value ([1]; inoculum 5×10^5 CFU/mL, strain GC 4557) was 8 µg/mL (≈ 5.76 µM), the “MIC Enterococcus avium (GC 4558)” value ([1]; inoculum 5×10^5 CFU/mL, strain GC 4558) was 16 µg/mL (≈ 11.5 µM) and the “MIC Enterococcus faecalis (GC 6189)” value ([1]; inoculum 5×10^5 CFU/mL, strain GC 6189) was 16 µg/mL (≈ 11.5 µM). The “MIC Staphylococcus aureus (GC 1131)” value ([2]; inoculum 5×10^5 CFU/mL) was 8 µg/mL (≈ 5.76 µM), the “MIC Staphylococcus aureus (ATCC 29213)” value ([2]; strain ATCC 29213) was 4 µg/mL (≈ 2.88 µM) and the “MIC Staphylococcus aureus (GC 1131)” value [2] was 8 µg/mL (≈ 5.76 µM). The “MIC Staphylococcus aureus (GC 3051)” value ([2]; strain GC 3051) was 4 µg/mL (≈ 2.88 µM), the “MIC Staphylococcus aureus (GC 3053)” value ([2]; strain GC 3053) was 8 µg/mL (≈ 5.76 µM) and the “MIC Staphylococcus aureus (GC 4541)” value ([2]; strain GC 4541) was 4 µg/mL (≈ 2.88 µM). The “MIC Staphylococcus aureus (GC 4542)” value ([2]; strain GC 4542) was 4 µg/mL (≈ 2.88 µM), the “MIC Staphylococcus aureus-SMITH (GC 4543)” value ([2]; strain GC 4543) was 4 µg/mL (≈ 2.88 µM) and the “MIC Staphylococcus aureus (GC 4544)” value ([2]; strain GC 4544) was 8 µg/mL (≈ 5.76 µM). The “MIC Staphylococcus aureus (GC 4545)” value ([2]; strain GC 4545) was 4 µg/mL (≈ 2.88 µM), the “MIC Staphylococcus haemolyticus (GC 4546)” value ([2]; strain GC 4546) was 2 µg/mL (≈ 1.44 µM) and the “MIC Coagulase Negative Staphylococcus (GC 4547)” value ([2]; strain GC 4547) was 4 µg/mL (≈ 2.88 µM). For the same molecule, the “MIC Coagulase Negative Staphylococcus (GC 4548)” value ([2]; strain GC 4548) was 4 µg/mL (≈ 2.88 µM), the “MIC Coagulase Negative Staphylococcus (GC 4549)” value ([2]; strain GC 4549) was 2 µg/mL (≈ 1.44 µM) and the “MIC Coagulase Negative Staphylococcus (GC 4551)” value ([2]; strain GC 4551) was 4 µg/mL (≈ 2.88 µM). For the same molecule, the “MIC Streptococcus agalactiae (GC 4564)” value [3] was 1 µg/mL (≈ 0.72 µM), the “MIC Streptococcus pneumoniae (ATCC 6301)” value [3] was 0.5 µg/mL (≈ 0.36 µM) and the “MIC Streptococcus pneumoniae (GC 1894)” value [3] was 0.25 µg/mL (≈ 0.18 µM). For the same molecule, the “MIC Streptococcus pneumoniae (GC 4565)” value [3] was 0.5 µg/mL (≈ 0.36 µM), the “MIC Streptococcus pyogenes (GC 4563)” value [3] was 0.5 µg/mL (≈ 0.36 µM) and the “MIC Streptococcus pneumoniae (ATCC 6301)” value ([3]; inoculum 5×10^5 CFU/mL, strain ATCC 6301) was 0.5 µg/mL (≈ 0.36 µM). The “MIC Streptococcus pneumoniae (GC 1894)” value ([3]; inoculum 5×10^5 CFU/mL, strain GC 1894) was 0.25 µg/mL (≈ 0.18 µM), the “MIC Streptococcus pyogenes (GC 4563)” value ([3]; inoculum 5×10^5 CFU/mL, strain GC 4563) was 0.5 µg/mL (≈ 0.36 µM) and the “MIC Streptococcus agalactiae (GC 4564)” value ([3]; inoculum 5×10^5 CFU/mL, strain GC 4564) was 1 µg/mL (≈ 0.72 µM). The “MIC Streptococcus pneumoniae (GC 4565)” value ([3]; inoculum 5×10^5 CFU/mL, strain GC 4565) was 0.5 µg/mL (≈ 0.36 µM), the “MIC Escherichia coli (ATCC 25922)” value [4] was 128 µg/mL (≈ 92.1 µM) and the “MIC Escherichia coli (GC 4559)” value [4] was 128 µg/mL (≈ 92.1 µM). The “MIC Escherichia coli (GC 4560)” value [4] was 4 µg/mL (≈ 2.88 µM).

— US6914045B2, “Glycopeptide antibiotics” (Wyeth Holdings Corporation, priority 2001, dated 2005)
